Converted amounts (≈) assume the structure as drawn. Where only a bound is given, the exact number is not on record here.

Test [1] in a line: Antiproliferative activity against human HCG27 cells by MTT assay. The format is functional, cell-based. On the technique in general: Formazan colour is commonly taken as a measure of viable cells.
Test [2] deals with ECa-109 cell line. Put plainly: Antiproliferative activity against human EC109 cells by MTT assay. The format is functional, cell-based.
Test [3] has as its system MGC-803. Put plainly: Antiproliferative activity against human MGC803 cells by MTT assay. The format is functional, cell-based.
The test system of test [4] is MCF7. The test is described as follows: cells. The format is functional, cell-based. The note with it: Homo sapiens.
Description: Antiproliferative activity against human MCF7 cells by MTT assay
The test system of test [5] is MCF7. Put plainly: Antiproliferative activity against human MCF7 cells assessed as reduction in cell viability after 72 hrs by MTT assay. The format is functional, cell-based. The settings on record: MCF7, 72 h.
The test system of test [6] is DU-145. The test is described as follows: Antiproliferative activity against human DU145 cells by SRB assay. The format is functional, cell-based. Background: In SRB staining, fixed cells bind dye roughly in proportion to their protein.
For test [7], the system named is MCF7. The test is described as follows: Antiproliferative activity against human MCF7 cells by SRB assay. The format is functional, cell-based.
The test system of test [8] is SK-OV-3. Put plainly: Antiproliferative activity against human SKOV3 cells by SRB assay. The format is functional, cell-based.
In test [9] the test system is MCF7. The test is described as follows: Antiproliferative activity against human MCF7 cells assessed as reduction in cell viability after 48 hrs by MTT assay. The format is functional, cell-based. The settings on record: MCF7, 48 h.
The subject of test [10] is HL-60. Put plainly: Antiproliferative activity against human HL60 cells assessed as reduction in cell viability after 48 hrs by MTT assay. The format is functional, cell-based. The note with it: HL-60, 48 h.
The nature of test [11]: Antiproliferative activity against human SMCC7721 cells assessed as reduction in cell viability after 48 hrs by MTT assay. The format is functional, cell-based.
Test [12] deals with SW480. The test is described as follows: Antiproliferative activity against human SW480 cells assessed as reduction in cell viability after 48 hrs by MTT assay. The note with it: SW480, 48 h. The format is functional, cell-based.
Test [13] has as its system KB. The test is described as follows: Antiproliferative activity against human KB cells by MTT assay. The format is functional, cell-based.
Test [14] has as its system HeLa. The test is described as follows: Antiproliferative activity against human HeLa cells by SRB assay. The format is functional, cell-based.
In test [15] the test system is DU-145. Put plainly: Antiproliferative activity against human DU145 cells assessed as reduction in cell viability after 48 hrs by MTT assay. The note with it: DU-145, 48 h. The format is functional, cell-based.
Test [16] concerns HepG2. The test is described as follows: Antiproliferative activity against human HepG2 cells by SRB assay. The format is functional, cell-based.
In test [17] the test system is MCF7-DOX. The test is described as follows: Antiproliferative activity against human MCF7/Dox cells by SRB assay. The format is functional, cell-based.
The test system of test [18] is T47D. The test is described as follows: Antiproliferative activity against human T47D cells assessed as reduction in cell viability after 72 hrs by MTT assay. The format is functional, cell-based.
For test [19], the system named is A549. The test is described as follows: Antiproliferative activity against human A549 cells by SRB assay. The format is functional, cell-based.
In test [20] the test system is HepG2. Put plainly: Antiproliferative activity against human HepG2 cells by MTT assay. The format is functional, cell-based.
Test [21] relates to A549. The test is described as follows: Antiproliferative activity against human A549 cells assessed as reduction in cell viability after 48 hrs by MTT assay. The format is functional, cell-based. The settings on record: A549, 48 h.
The subject of test [22] is PC-3. The test is described as follows: cells. The format is functional, cell-based. The settings on record: Homo sapiens, PC-3, 48 h.
Description: Antiproliferative activity against human PC3 cells assessed as reduction in cell viability after 48 hrs by MTT assay
Test [23] concerns HGC-27. The test is described as follows: Antiproliferative activity against human HGC27 cells assessed as reduction in cell viability after 48 hrs by MTT assay. The settings on record: HGC-27, 48 h. The format is functional, cell-based.
Test [24] concerns HT-29. The test is described as follows: Antiproliferative activity against human HT-29 cells assessed as reduction in cell viability after 48 hrs by MTT assay. The note with it: HT-29, 48 h. The format is functional, cell-based.
Test [25] has as its system A549. The test is described as follows: cells. The format is functional, cell-based. The settings on record: Homo sapiens.
Description: Antiproliferative activity against human A549 cells by MTT assay
Test [26] deals with DU-145. The test is described as follows: Antiproliferative activity against human DU145 cells by MTT assay. The format is functional, cell-based.
The test system of test [27] is HEK293. Put plainly: Cytotoxicity against HEK293 cells by MTT assay. The settings on record: Homo sapiens. The format is cell-based.
The subject of test [28] is MDA-MB-231. The test is described as follows: Antiproliferative activity against human MDA-MB-231 cells by MTT assay. The format is functional, cell-based.
Test [29] deals with HeLa. The test is described as follows: Antiproliferative activity against human HeLa cells by MTT assay. The format is functional, cell-based.
Test [30] relates to MCF7. The test is described as follows: Antiproliferative activity against human MCF7 cells assessed as reduction in cell viability after 48 hrs by SRB assay. The format is functional, cell-based. The note with it: MCF7, 48 h.
Test [31] concerns HT-29. Put plainly: Antiproliferative activity against human HT-29 cells assessed as reduction in cell viability after 48 hrs by SRB assay. The format is functional, cell-based. The settings on record: HT-29, 48 h.
For test [32], the system named is HCT-116. Put plainly: Antiproliferative activity against human HCT116 cells assessed as reduction in cell viability after 48 hrs by SRB assay. The note with it: HCT-116, 48 h. The format is functional, cell-based.
The test system of test [33] is A549. The test is described as follows: Antiproliferative activity against human A549 cells assessed as reduction in cell viability after 48 hrs by SRB assay. The format is functional, cell-based. The settings on record: A549, 48 h.
For test [34], the system named is IMR-32. Put plainly: Antiproliferative activity against human IMR32 cells by SRB assay. The format is functional.
A short description of test [35]: Antiproliferative activity against human MiaPaCa cells by SRB assay. The format is functional. The note with it: MIA PaCa-2.
The test system of test [36] is MDA-MB-231. The test is described as follows: Antiproliferative activity against human MDA-MB-231 cells by SRB assay. The format is functional.
Test [37] has as its system HT-29. The test is described as follows: Potency index, ratio of Sorafenib IC50 to test compound IC50 for antiproliferative activity against human HT-29 cells. The format is functional.
Test [38] concerns MCF7. Put plainly: Potency index, ratio of Sorafenib IC50 to test compound IC50 for antiproliferative activity against human MCF7 cells. The format is functional.
The test system of test [39] is HT-29. Put plainly: Antiproliferative activity against human HT-29 cells assessed as reduction in cell viability after 72 hrs by MTT assay. The format is functional, cell-based. The settings on record: HT-29, 72 h.
The test system of test [40] is MDA-MB-231. Put plainly: Antiproliferative activity against human MDA-MB-231 cells assessed as reduction in cell viability after 24 hrs by MTT assay. The format is functional, cell-based. The note with it: MDA-MB-231, 24 h.
In test [41] the test system is MCF7. The test is described as follows: Antiproliferative activity against human MCF7 cells assessed as reduction in cell viability after 24 hrs by MTT assay. The format is functional, cell-based. The note with it: MCF7, 24 h.
The subject of test [42] is MKN-28. The test is described as follows: Antiproliferative activity against human MKN28 cells by MTT assay. The format is functional, cell-based.
The subject of test [43] is MKN-45. The test is described as follows: Antiproliferative activity against human MKN45 cells by MTT assay. The format is functional, cell-based.

Take `Cc1ccc(Cn2cc(CSc3nc(Nc4ccccc4)c4ccccc4n3)nn2)cc1`: the IC50 is 0.57 to 7.13 µM in test [1], 0.57 to 7.13 µM in test [2], 570 to 7130 nM in test [3] and 0.57 to 7.13 µM in test [4].

On to `COc1cc([C@@H]2c3cc4c(cc3[C@@H](O[C@@H]3O[C@@H]5CO[C@@H](C)O[C@H]5[C@H](O)[C@H]3O)[C@H]3COC(=O)[C@H]23)OCO4)cc(OC)c1O` [ETOPOSIDE], for which the GI50 is 7.5 µg/mL (≈ 12.7 µM) in test [5] and 7.9 µg/mL (≈ 13.4 µM) in [18]. For the same compound, the IC50 in test [6] lay within 6.94 to 50 µM; in test [7] it was 6.94 to 50 µM; in test [8], 6.94 to 50 µM; in test [9], 0.31 to 32.8 µM; in [10], 8.12 to 32.8 µM; in [11], 0.31 to 32.8 µM. Further, the IC50 in test [12] was 0.31 to 32.8 µM; in test [13], 11.8 to 15.7 µM; in test [14], 6.94 to 50 µM; in [15], 9.8 µM; in test [16], 6.94 to 50 µM; in test [17], 6.94 to 50 µM. Also, the IC50 in test [19] lay in the range of 6.94 to 50 µM; in test [20], 11.8 to 15.7 µM; in [21] it was 0.31 to 32.8 µM.

In the case of `COc1ccc2c(c1)[nH]c1c(C)nccc12` [HARMINE], the IC50 was 3520 to 24400 nM in test [5], 3.52 to 24.4 µM in test [22], 3.52 to 24.4 µM in [23] and 3.52 to 24.4 µM in test [24].

Regarding `CC/C(=C(\c1ccccc1)c1ccc(OCCN(C)C)cc1)c1ccccc1` [TAMOXIFEN], the IC50 is 10.9 to 18.6 µM in test [25]; 10.9 to 18.6 µM in test [26]; > 50 µM in test [27]; 11.2 µM in [28]; 10.9 to 18.6 µM in [29]; 10.9 to 18.6 µM in test [4].

As for `Cc1ccc(-c2nn(-c3ccccc3)cc2/C=C/C(=O)OCc2cn(-c3ccc([N+](=O)[O-])cc3)nn2)cc1`, the IC50 in [30], in test [31], in test [32] and in test [33] was 1760 to 9460 nM each time.

With `N#Cc1ccccc1Cn1cc(CNc2ccc3oc(-c4ccccc4)cc(=O)c3c2)nn1`, the GI50 in test [34], in test [35] and in test [36] was 110 to 1000 nM each time.

In the case of `CNC(=O)c1cc(Oc2ccc(-n3cc(-c4cccc(F)c4)nn3)cc2)ccn1`, the “Ratio IC50” value in test [37] and in test [38] was 6.2 - 131.2 each time. Besides, the IC50 in test [5] and in [39] was 200 to 840 nM each time.

On to `Cc1ncc([N+](=O)[O-])n1Cc1cn(CCCCCN2C(=O)C(=O)c3cc(Cl)ccc32)nn1`, for which the results for the IC50 in test [40] and in test [41] were 16.1 µM and 20.8 µM, respectively.

Turning to `COc1ccc(-n2cc(CN3c4ccccc4Sc4ccccc43)nn2)c([N+](=O)[O-])c1`, the concentration for half-maximal inhibition (IC50) in test [42], in [3] and in [43] was 1200 to 3500 nM each time.

For `CC[C@@]1(O)C(=O)OCc2c1cc1n(c2=O)Cc2cc3ccccc3nc2-1` [CAMPTOTHECIN], the IC50 in test [30], in [31], in [32] and in [33] was 30 to 800 nM in each case.

As usually defined, the IC50 is the concentration that inhibits the measured activity by half. In general, GI50 refers to the concentration giving 50% growth inhibition.

(Values after ChEMBL document CHEMBL4342418, “1,2,3-Triazole-containing hybrids as potential anticancer agents: Current developments, action mechanisms and structure-activity relationships” (Eur J Med Chem, 2019).)
